Results: US7910624B1, “Compositions for the treatment of blood disorders” (The Trustees of Boston University, priority 1995, dated 2011)

Legend:
[1] = tested on: system A transport in K562 cells and nucleated erythroblasts from fetal liver; assay: System A (neutral amino acid) transport, 3H-MAIB uptake; type: cell-based, human; settings: 1 hour incubation, FIG. 12
Protocol: Inhibition of nutrient uptake is undesirable for treatment of anemias. Methyl aminoisobutyric acid (MAIB) labeled with tritium (^3H) is normally taken up by system A amino acid transport. Cold (unlabeled) compounds were added to cultures containing ^3H-MAIB and incubated for 1 hour. Cells were harvested and the amount of ^3H taken up by cells was quantitated by scintillation counting.

[2] = tested on: human erythroid cell line K562; assay: Cell viability / growth of K562 by Calcein-AM fluorescence; type: cell-based; settings: over 3 days
Protocol: (§1) Such activities might limit their utility for treatment of anemias such as occur in thalassemia, but alternatively would be useful for anticancer effects. To determine cell viability, human erythroid cells were cultured in the presence and absence of these compounds for 4 days and the amount of DNA fragmentation which occurred was measured.
(§2) Cell viability analyses were performed using fluorescent staining to detect living cells. Cells were in log phase of growth in 6-well dishes when used in proliferation assays. For enumeration of living cells, wells were washed once with medium to remove nonadherent or dead cells. Remaining live cells were labeled with Calcein-AM for 20 minutes at 37° C. and washed once. Fluorescence intensity of adherent live cells was read on a CytoFluor 2300 Fluorescence Plate Scanner (Millipore; Bedford, Mass.) at excitation and emission wavelengths of 485 and 530 nm, respectively. The fluorescence intensity of a well was proportional to the number of living cells in the well. Background fluorescence was measured separately for each plate and subtracted from all readings. Each experiment was performed in triplicate or quadruplicate. The standard deviation (SD) of repetitive readings was less than 30% of the mean.
At higher concentrations, still easily achievable in vivo, arginine butyrate (0.5 mM) and dihydrocinnamic acid (greater than 0.5 mM) inhibited growth of this tumor cell line by approximately 50%. Therefore, these compounds are also useful as anti-tumor agents.

anemic juvenile baboons = assay: In vivo reticulocyte proliferation and globin expression in phlebotomized anemic baboons; set-up: species or system baboon
Method in brief: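 Juvenile female baboons, phlebotomized daily to hemoglobin 7.0-7.5 g/dl, received compounds sequentially with washout to baseline reticulocytes, each animal its own control. HbF-positive reticulocytes were counted by dual-antibody FACS. γ/(γ+β) globin synthesis ratio came from ^3H-leucine labeling and chromatographic chain separation, unadjusted for phlebotomy.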

[3] = tested on: Human erythroleukemia cells; assay: Fetal globin mRNA in erythroleukemia cells by primer extension; type: cell-based; settings: 1.0 mM, 4 days
Protocol: Compounds were tested for increased expression of the human globin genes in human erythroid cells. In addition, as the cell line being tested is a tumor cell line, the assay determines if differentiation, a growth inhibitory effect on cancer cells, is induced by the compounds tested. Human erythroleukemia cells were cultured in RPMI media with 10% fetal calf serum alone or with treatment with various compounds for 4 days. Globin mRNA was quantitated by primer extension analysis. Fetal globin mRNA was compared to the amount of fetal globin mRNA produced in untreated cells during the same culture period. The quantitation was expressed as a percent of alpha globin mRNA which was constant. Results are expressed proportional to α-globin mRNA (Table 3).

[4] = tested on: erythroid cells (peripheral blood cells); assay: Erythroid cell viability by Calcein-AM fluorescent staining (FIG. 2); type: cell-based
Protocol: as §2, with “Compositions were tested for the ability to directly stimulate erythroid cell growth. Cell growth stimulation is a useful property for an agent to be used to treat anemias and distinguishes such agents from the cytotoxic drugs currently being tested for treatment of hemoglobinopathies. Cell viability” for “Cell viability”, “labeled with 2 μM 2′,7′-bis-(carboxyethyl)-5-(and 6)-carboxy-fluorescein acetoxy-methyl ester (Calcein-AM) (Molecular Probes; Eugene, Oreg.) for 20” for “labeled with Calcein-AM for 20”, “intensity of live cells” for “intensity of adherent live cells”, “the mean. Results are depicted in FIG. 2.” for “the mean.”

human erythroid cells = assay: DNA fragmentation by flow cytometry (propidium iodide); type: cell-based; settings: for effect in DNA fragmentation assays: summary statement
Protocol: as §1
Flow cytometric determination of DNA profiles and DNA fragmentation were determined. Cytometric analysis was performed with a FACScan (Becton Dickenson Instruments; Columbia, Md.). The data analysis and display were performed using the Cell-Fit software program. Approximately 0.5×10^6 cells were washed twice with PBS and resuspended in 1 ml of 1% sodium citrate, 0.1% Triton X-100 and […] of propidium iodide/ml. Resulting permeabilized cells were kept in the dark at 4° C. overnight before DNA profile or DNA fragmentation analysis (Table 4).

[5] = 1.0 mM to 2.0 mM, untreated cells 26%
[6] = 2.0 mM, 4 days, controls 26%, 22%
[7] = 1,000 to 1,500 mg/kg/day, 4 days

Structure (SMILES): CCCC(=O)O [AB, arginine butyrate]
- system A transport of amino acids (3H-MAIB uptake) [1]: inhibited the neutral amino acid transport mechanism
- growth of K562 ([2]; 0.2 mM): either did not inhibit, or slightly enhanced growth
- response of the same monkey (anemic juvenile baboons; 1,000 mg/kg for 5 days or 2,000 mg/kg for 3 days): had not responded
- induction of fetal globin mRNA in human cells [3]: significantly increased
- erythroid cell growth and proliferation compared to untreated controls (FIG. 2) ([4]; 0.2 mM): inhibited proliferation
- erythroid cell growth and proliferation compared to untreated controls (FIG. 2) ([4]; 0.5 mM): inhibited proliferation
- Degraded DNA (human erythroid cells; 0.5 mM, 4 days, controls 26%, 22%): 32%
- Degraded DNA (human erythroid cells; [5]): 44%
- Degraded DNA (human erythroid cells; 1.0 mM, 4 days, controls 26%, 22%): 34%
- Degraded DNA (human erythroid cells; [6]): 44%
- effect in DNA fragmentation assays (human erythroid cells): decrease cell viability

Structure (SMILES): O=C(O)COc1ccccc1 [PAA, Phenoxyacetic acid]
- system A transport of amino acids (3H-MAIB uptake) ([1]; listed as phenoxy acetic acid): caused no significant inhibition and actually increased uptake of nutrients into cells
- system A transport of amino acids (3H-MAIB uptake) ([1]; listed as phenoxyacetic acid): do not significantly alter
- growth of K562 ([2]; 0.5 mM): either did not inhibit, or slightly enhanced growth
- time the effect maintained itself after drug was discontinued (anemic juvenile baboons; 1,500 mg/kg each day, 5 days): two days
- reticulocytes after treatment (anemic juvenile baboons; 1,500 mg/kg each day, 5 days, from 1.9%): 9.2 % of all red blood cells
- white blood cell count after treatment (anemic juvenile baboons; 1,500 mg/kg each day, 5 days, from 6.9): 9.5 ×10^3 cells/μl
- packed red blood cell volume after treatment (anemic juvenile baboons; 1,500 mg/kg each day, 5 days, from 22%): 25.4%
- fetal reticulocytes, fold above baseline (anemic juvenile baboons; [7]): eight-fold
- fetal reticulocytes, percent above baseline (anemic juvenile baboons; [7]): 800%
- increase in output of fetal globin production over basal levels (anemic juvenile baboons; [7]): 4,000%
- fetal globin protein synthesis after treatment (anemic juvenile baboons; 1,000 to 1,500 mg/kg/day, 4 days, from 0%): 5%
- fetal reticulocytes after treatment (anemic juvenile baboons; another juvenile baboon, intravenous 1,000 to 1,500 mg/kg/day, 4 days, from 2%): 16%
- total hemoglobin after treatment (anemic juvenile baboons; infused 1,500 mg/kg each day, 5 days (FIG. 7), from 6.8): 7.6 grams/dl
- proportion of fetal reticulocytes on treatment (anemic juvenile baboons; infused 5 days, 500, 1,000 and 1,500 mg/kg (8 hours each), after 3 days (FIG. 9), from 12%): 27%
- induction of fetal globin mRNA in human cells [3]: significantly increased
- Gamma/Alpha (fetal globin mRNA proportional to α-globin mRNA) ([3]; untreated 0.46): 0.70
- Gamma Globin mRNA (increase ↑) ([3]; versus untreated): 24% ↑
- erythroid cell growth and proliferation compared to untreated controls (FIG. 2) ([4]; 0.5 mM): either had no effect or stimulated erythroid cell growth and proliferation
- Degraded DNA (human erythroid cells; [5]): 20.6%
- Degraded DNA (human erythroid cells; [6]): 20.6%
- effect in DNA fragmentation assays (human erythroid cells): reduce DNA fragmentation
